Each block holds one molecule with its values, some of them ahead of it.
Key:
[1] = system: Sprague Dawley rats; test: rat electrocardiogram/electrophysiology model, 20-min continuous intravenous infusion; type: in vivo; conditions: for Percent change AH / Percent change ARP / Percent change AVRP / Percent change HR / Percent change HV / Percent change MAP / Percent change PR / Percent change QRS / Percent change QT / Percent change QTc / Percent change VRP: after a 20 min infusion, ± se
Method: (§1) Adult, male Sprague Dawley rats (240-280 g) were used for all studies. Rats were anesthetized with a mixture of ketamine:xylazine (85 mg/kg:5 mg/kg, ip). Catheters were placed in the left femoral artery and left femoral vein for the measurement of arterial pressure and the administration of test agents, respectively. In addition, a catheter was placed in the right femoral vein to administer a continuous infusion of ketamine:xylazine (45 mg/kg/hr:1.5 mg/kg/hr). A recording/stimulating catheter was then placed in the right jugular vein and advanced to the right atrium. Two electrodes were used to obtain bipolar atrial electrogram recording, and two were used for bipolar pacing of the atria/heart. The right carotid artery was then cannulated with a second recording/stimulating catheter, and the catheter was advance into the left ventricle. Two electrodes were used to obtain bipolar ventricular and His bundle electrograms, and two were used to pace the ventricle. Needle electrodes were placed subcutaneously in the right axillary and left inguinal areas to record lead II electrocardiogram. After equilibration and baseline readings, continuous infusion of test agent or vehicle was started and readings taken at 10 min and 20 min after start of infusion. Blood samples for plasma analysis were obtained from the femoral artery catheter at 10 and 20 min after the start of the infusion. Atrial effective (ARP), ventricular effective (VRP), and AV node effective (AVRP) refractory periods determined as follows: excitation threshold was determined for the atria and ventricles, then a conditioning train of stimuli (S1, 1 ms duration) at a cycle length of 150 ms was delivered at 1×-2× threshold followed by an extrastimulus (S2, 1 ms duration) at 2× threshold. The S1—S2 coupling interval was decreased by 5 ms, then 1 ms intervals to obtain refractory periods. ARP and VRP were defined as the shortest coupling interval that permitted propagation of an atrial or ventricular extrastimulus. AVRP was defined as the shortest coupling interval that permitted the propagation of the atria extrastimulus through the AV node to elicit ventricular depolarization. In addition, PR, AH (both a measure of AV nodal conduction) and HV (a measure of His-Purkinje conduction) intervals were measured during short (10-20 sec) trains of fixed S1—S1 interval pacing of 150 ms. QT interval was obtained during sinus rhythm. […] Am J Physiol. 1998;274:H747-51) were reported. Compounds were dissolved in either saline or N,N-dimethylformamide. Intravenous infusion of test agents or vehicles was normalized to body weight.
In an extension of these studies to longer duration infusions, 3-[(dimethylamino)methyl]-6-methoxy-2-methyl-4-phenylisoquinolin-1(2H)-one hydrochloride and (2-isopropyl-5-methylcyclohexyl)(diphenyl)phosphine oxide were tested in a 20-min intravenous continuous infusion protocol. […] Plasma levels of 3-[(dimethylamino)methyl]-6-methoxy-2-methyl-4-phenylisoquinolin-1(2H)-one hydrochloride at 10 and 20 min after the start of a 0.1 mg/kg/min infusion were 3.4±0.2 μM and 2.8±0.3 μM, respectively.

[2] = system: Sprague Dawley rats; test: rat electrocardiogram/electrophysiology model, 5-min intravenous infusion paradigm; type: in vivo; conditions: readings immediately after the infusion, dose dependent
Method: as §1
Two infusion paradigms were tested with two structurally distinct Kv1.5 antagonists, 3-[(dimethylamino)methyl]-6-methoxy-2-methyl-4-phenylisoquinolin-1(2H)-one hydrochloride (described in WO 02/24655 A1) and (2-isopropyl-5-methylcyclohexyl)(diphenyl)phosphine oxide (described in U.S. Pat. No. 6,214,809 B1). In an initial shorter duration infusion paradigm, a 5-min intravenous infusion of compound or vehicle was administered with electrocardiogram/electrophysiology readings determined immediately after the infusion.

[3] = plasma levels during continuous intravenous infusion; type: in vivo, rat; conditions: for concentration at 10 min / concentration at 20 min: male, Sprague Dawley, rat, plasma, intravenous; for concentration at 10 min: 10 min after start; for concentration at 20 min: 20 min after start
Method: as §1

[4] = 0.2 mg/kg/min, 10-min post infusion
[5] = 0.2 mg/kg/min, listed as (2-isopropyl-5-methylcyclohexyl)(diphenyl)phosphine oxide
[6] = dose that caused a similar decrease in blood pressure as 0.03 mg/kg/min amlodipine
[7] = doses that caused similar blood pressure lowering as higher infusion rates of amlodipine
[8] = 0.1 mg/kg/min, 20-min after start of infusion
[9] = 0.1 mg/kg/min, 10 min after start of infusion
[10] = 0.2 mg/kg/min, DMF vehicle, 20-min infusion
[11] = 0.2 mg/kg/min, saline vehicle, 10-min post infusion
[12] = 0.2 mg/kg/min, saline vehicle, 20 min after start of infusion
[13] = 20-min infusion, dose that produced a similar increase in VRP as the Kv1.5 antagonists

Structure (SMILES): CC1CCC(C(C)C)C(P(=O)(c2ccccc2)c2ccccc2)C1 (centres unmarked) [compound 2, (2-isopropyl-5-methylcyclohexyl)(diphenyl)phosphine oxide]
ARP [1, 4]: significant increases
QT [1, 4]: significant increases
VRP [1, 4]: significant increases
Percent change AH ([1]; 0.2 mg/kg/min): −1 ± 1%
Percent change ARP ([1]; 0.2 mg/kg/min): 26 ± 4%
Percent change AVRP ([1]; 0.2 mg/kg/min): −1 ± 1%
Percent change HR ([1]; 0.2 mg/kg/min): 8 ± 6%
Percent change HV ([1]; 0.2 mg/kg/min): −8 ± 3%
Percent change MAP ([1]; 0.2 mg/kg/min): 4 ± 4%
Percent change PR ([1]; 0.2 mg/kg/min): −3 ± 1%
Percent change QRS ([1]; 0.2 mg/kg/min): −3 ± 4%
Percent change QT ([1]; 0.2 mg/kg/min): 27 ± 7%
Percent change QTc ([1]; 0.2 mg/kg/min): 33 ± 8%
Percent change VRP ([1]; 0.2 mg/kg/min): 22 ± 5%
Percent change ARP [1, 5]: 24%
Percent change QT [1, 5]: 27%
Percent change QTc [1, 5]: 33%
Percent change VRP [1, 5]: 22%
ARP [2]: increases
QT interval [2]: increases
VRP [2]: increases

Structure (SMILES): COc1ccc([C@@H]2Sc3ccccc3N(CCN(C)C)C(=O)[C@@H]2OC(C)=O)cc1 [diltiazem]
decrease in heart rate [1, 6]: 12%
increase in AV nodal conduction [1, 6]: 9%
increase in AV nodal refractoriness [1, 6]: 10%
blood pressure lowering [1, 7]: 23%
increase in AV nodal conduction [1, 7]: 15%
increase in AV nodal refractoriness [1, 7]: 19%

plasma levels, saline group versus DMF group ([3]; 0.2 mg/kg/min, dissolved in saline or DMF): similar
concentration at 10 min ([3]; 0.1 mg/kg/min infusion): 3.4 ± 0.2 µM
concentration at 20 min ([3]; 0.1 mg/kg/min infusion): 2.8 ± 0.3 µM
concentration at 10 min ([3]; 0.2 mg/kg/min infusion): 6.3 ± 0.5 µM
concentration at 20 min ([3]; 0.2 mg/kg/min infusion): 5.5 ± 0.2 µM
Structure (SMILES): COc1ccc2c(=O)n(C)c(CN(C)C)c(-c3ccccc3)c2c1.Cl [compound 1, 3-[(dimethylamino)methyl]-6-methoxy-2-methyl-4-phenylisoquinolin-1(2H)-one hydrochloride]
ARP [1, 8]: no change
increase in QT [1, 8]: 10%
increase in QTc [1, 8]: 16%
increase in VRP [1, 8]: 5%
increase in heart rate [1, 8]: 5%
ARP [1, 9]: no change
QT [1, 9]: slight increase
QTc [1, 9]: slight increase
VRP [1, 9]: no change
increase in ARP [1, 10]: 8%
increase in QT [1, 10]: 11%
increase in VRP [1, 10]: 13%
Percent change AH ([1]; 0.2 mg/kg/min): 5 ± 1%
Percent change ARP ([1]; 0.2 mg/kg/min): 5 ± 3%
Percent change AVRP ([1]; 0.2 mg/kg/min): 4 ± 2%
Percent change HR ([1]; 0.2 mg/kg/min): −1 ± 4%
Percent change HV ([1]; 0.2 mg/kg/min): 0 ± 3%
Percent change MAP ([1]; 0.2 mg/kg/min): 2 ± 2%
Percent change PR ([1]; 0.2 mg/kg/min): 3 ± 1%
Percent change QRS ([1]; 0.2 mg/kg/min): 0 ± 0%
Percent change QT ([1]; 0.2 mg/kg/min): 12 ± 2%
Percent change QTc ([1]; 0.2 mg/kg/min): 11 ± 2%
Percent change VRP ([1]; 0.2 mg/kg/min): 13 ± 1%
QT [1, 11]: significant increases
VRP [1, 11]: significant increases
change in RR interval [1, 12]: −17%
heart rate [1, 12]: significant increases
increase in ARP [1, 12]: 12%
increase in QT interval [1, 12]: 14%
increase in QTc [1, 12]: 24%
increase in VRP [1, 12]: 11%
ARP [2]: increases
QT interval [2]: increases
VRP [2]: increases

plasma concentrations [3, 13]: ~0.6 µM
plasma concentration ([3]; infusion of lower doses): 0.027 µM
Structure (SMILES): CS(=O)(=O)Nc1ccc2c(c1)C(O)CC1(CCN(C3CCc4cc(C#N)ccc4C3)CC1)O2.Cl [Ikr blocker, N-[1′-(6-cyano-1,2,3,4-tetrahydro-2(R)-naphthalenyl)-3,4-dihydro-4(R)-hydroxyspiro[2H-1-benzopyran-2,4′-piperidin]-6-YL]-,(+)-,monohydrochloride]
Percent change AH ([1]; 0.0001 mg/kg/min): 2 ± 1%
Percent change ARP ([1]; 0.0001 mg/kg/min): 0 ± 2%
Percent change AVRP ([1]; 0.0001 mg/kg/min): 1 ± 2%
Percent change HR ([1]; 0.0001 mg/kg/min): −1 ± 5%
Percent change HV ([1]; 0.0001 mg/kg/min): −1 ± 1%
Percent change MAP ([1]; 0.0001 mg/kg/min): −7 ± 8%
Percent change PR ([1]; 0.0001 mg/kg/min): 2 ± 2%
Percent change QRS ([1]; 0.0001 mg/kg/min): 0 ± 1%
Percent change QT ([1]; 0.0001 mg/kg/min): 1 ± 1%
Percent change QTc ([1]; 0.0001 mg/kg/min): 0 ± 2%
Percent change VRP ([1]; 0.0001 mg/kg/min): −2 ± 1%
Percent change AH ([1]; 0.001 mg/kg/min): 9 ± 1%
Percent change ARP ([1]; 0.001 mg/kg/min): 2 ± 4%
Percent change AVRP ([1]; 0.001 mg/kg/min): 11 ± 1%
Percent change HR ([1]; 0.001 mg/kg/min): 3 ± 4%
Percent change HV ([1]; 0.001 mg/kg/min): −4 ± 3%
Percent change MAP ([1]; 0.001 mg/kg/min): −1 ± 3%
Percent change PR ([1]; 0.001 mg/kg/min): 8 ± 1%
Percent change QRS ([1]; 0.001 mg/kg/min): 3 ± 1%
Percent change QT ([1]; 0.001 mg/kg/min): −1 ± 1%
Percent change QTc ([1]; 0.001 mg/kg/min): 1 ± 1%
Percent change VRP ([1]; 0.001 mg/kg/min): 0 ± 1%
Percent change AH ([1]; 0.03 mg/kg/min): 13 ± 4%
Percent change ARP ([1]; 0.03 mg/kg/min): 4 ± 4%
Percent change AVRP ([1]; 0.03 mg/kg/min): 21 ± 3%
Percent change HR ([1]; 0.03 mg/kg/min): 22 ± 5%
Percent change HV ([1]; 0.03 mg/kg/min): 4 ± 3%
Percent change MAP ([1]; 0.03 mg/kg/min): 18 ± 5%
Percent change PR ([1]; 0.03 mg/kg/min): 9 ± 4%
Percent change QRS ([1]; 0.03 mg/kg/min): 0 ± 1%
Percent change QT ([1]; 0.03 mg/kg/min): 11 ± 3%
Percent change QTc ([1]; 0.03 mg/kg/min): 23 ± 5%
Percent change VRP ([1]; 0.03 mg/kg/min): 7 ± 2%
increase in AH interval (delay in AV node conduction) [1, 13]: ~13%
increase in AVRP [1, 13]: 21%
increase in HR [1, 13]: 22%
increase in MAP [1, 13]: 18%
ARP ([1]; infusion of lower doses): no change
AVRP ([1]; infusion of lower doses): significant changes
VRP ([1]; infusion of lower doses): no change

Structure (SMILES): CCN(CC)CCNC(=O)c1ccc(N)cc1 [procainamide]
HV interval ([1]; infusion at increasing rates): dose-dependent increases
QRS interval ([1]; infusion at increasing rates): dose-dependent increases
blood pressure ([1]; infusion at increasing rates): without having significant effects
heart rate ([1]; infusion at increasing rates): without having significant effects

Structure (SMILES): CCOC(=O)C1=C(COCCN)NC(C)=C(C(=O)OC)C1c1ccccc1Cl (centres unmarked) [amlodipine]
decrease in blood pressure ([1]; 0.03 mg/kg/min for 20 min): −14%
decrease in blood pressure ([1]; higher infusion rates): 30%
increase in AV nodal conduction ([1]; higher infusion rates): 6%
increase in AV nodal refractoriness ([1]; higher infusion rates): 7%

— US20070134157A1, “Biological assay” (priority 2004, published 2007)
